Reference: ChEMBL document CHEMBL3046559, “Sterile oat (Avena sterilis L.) cross-resistance profile to ACCase-inhibiting herbicides in Greece” (2012)

Experiments:
Type in all cases: functional
Avena sterilis [1] = experiment: Herbicidal activity against Avena sterilis accession P14 assessed as weed survival at 4 times field recommended herbicide dose
Avena sterilis [2] = experiment: Herbicidal activity against Avena sterilis accession P17 assessed as weed survival at 1 times field recommended herbicide dose
Avena sterilis [3] = experiment: Herbicidal activity against Avena sterilis accession P08 assessed as weed survival at 16 times field recommended herbicide dose
Avena sterilis [4] = experiment: Herbicidal activity against Avena sterilis accession P09 assessed as weed survival at 1 times field recommended herbicide dose
Avena sterilis [5] = experiment: Herbicidal activity against Avena sterilis accession P02 assessed as weed survival at 1 times field recommended herbicide dose
Avena sterilis [6] = experiment: Resistance index, ratio of GR50 for Avena sterilis accession P14 to GR50 for Avena sterilis accession P10S
Avena sterilis [7] = experiment: Resistance index, ratio of GR50 for Avena sterilis accession P20 to GR50 for Avena sterilis accession P10S
Avena sterilis [8] = experiment: Resistance index, ratio of GR50 for Avena sterilis accession P09 to GR50 for Avena sterilis accession P10S
Avena sterilis [9] = experiment: Resistance index, ratio of GR50 for Avena sterilis accession P06S to GR50 for Avena sterilis accession P10S
Avena sterilis [10] = experiment: Resistance index, ratio of GR50 for Avena sterilis accession P04 to GR50 for Avena sterilis accession P10S
Avena sterilis [11] = experiment: Resistance index, ratio of GR50 for Avena sterilis accession P18 to GR50 for Avena sterilis accession P10S
Avena sterilis [12] = experiment: Resistance index, ratio of GR50 for Avena sterilis accession P03 to GR50 for Avena sterilis accession P10S
Avena sterilis [13] = experiment: Resistance index, ratio of GR50 for Avena sterilis accession P08 to GR50 for Avena sterilis accession P10S
Avena sterilis [14] = experiment: Resistance index, ratio of GR50 for Avena sterilis accession P22 to GR50 for Avena sterilis accession P10S
Avena sterilis [15] = experiment: Resistance index, ratio of GR50 for Avena sterilis accession P16 to GR50 for Avena sterilis accession P10S
Avena sterilis [16] = experiment: Resistance index, ratio of GR50 for Avena sterilis accession P21S to GR50 for Avena sterilis accession P10S
Avena sterilis [17] = experiment: Resistance index, ratio of GR50 for Avena sterilis accession P11 to GR50 for Avena sterilis accession P10S
Avena sterilis [18] = experiment: Resistance index, ratio of GR50 for Avena sterilis accession P02 to GR50 for Avena sterilis accession P10S
Avena sterilis [19] = experiment: Resistance index, ratio of GR50 for Avena sterilis accession P13S to GR50 for Avena sterilis accession P10S
Avena sterilis [20] = experiment: Resistance index, ratio of GR50 for Avena sterilis accession P12 to GR50 for Avena sterilis accession P10S
Avena sterilis [21] = experiment: Resistance index, ratio of GR50 for Avena sterilis accession P19S to GR50 for Avena sterilis accession P10S
Avena sterilis [22] = experiment: Resistance index, ratio of GR50 for Avena sterilis accession P01 to GR50 for Avena sterilis accession P10S
Avena sterilis [23] = experiment: Resistance index, ratio of GR50 for Avena sterilis accession P17 to GR50 for Avena sterilis accession P10S
Avena sterilis [24] = experiment: Resistance index, ratio of GR50 for Avena sterilis accession P05 to GR50 for Avena sterilis accession P10S
Avena sterilis [25] = experiment: Resistance index, ratio of GR50 for Avena sterilis accession P15 to GR50 for Avena sterilis accession P10S
Avena sterilis [26] = experiment: Resistance index, ratio of GR50 for Avena sterilis accession P07 to GR50 for Avena sterilis accession P10S

Structure (SMILES)	Survival (Avena sterilis [1]) [%]	Survival (Avena sterilis [2]) [%]	Survival (Avena sterilis [3]) [%]	Survival (Avena sterilis [4]) [%]	Survival (Avena sterilis [5]) [%]	Ratio (Avena sterilis [7])	Ratio (Avena sterilis [8])	Ratio (Avena sterilis [9])	Ratio (Avena sterilis [10])	Ratio (Avena sterilis [12])	Ratio (Avena sterilis [13])	Ratio (Avena sterilis [14])	Ratio (Avena sterilis [15])	Ratio (Avena sterilis [16])	Ratio (Avena sterilis [18])	Ratio (Avena sterilis [19])	Ratio (Avena sterilis [21])	Ratio (Avena sterilis [22])	Ratio (Avena sterilis [23])	Ratio (Avena sterilis [25])	also measured
COCc1cnc(C2=NC(C)(C(C)C)C(=O)N2)c(C(=O)O)c1 (stereo not drawn) [IMAZAMOX]	0	3	0	0	3																
C#CCOC(=O)[C@@H](C)Oc1ccc(Oc2ncc(Cl)cc2F)cc1 [CLODINAFOP PROPARGYL]	87	97	73	63	97	63	6	1.1	>164	>164	>164	15	21	1.4	>164	0.6	3.6	130	35	>164	Ratio (Avena sterilis [6]): 150; Ratio (Avena sterilis [11]): 64; Ratio (Avena sterilis [17]): >164; Ratio (Avena sterilis [20]): >164; Ratio (Avena sterilis [24]): 22
COC(=O)C(C)Oc1ccc(Oc2ccc(Cl)cc2Cl)cc1 (stereo not drawn) [DICLOFOP-METHYL]	77	93	53	100	100	>50	28	1.1	28	26	22	8	11	0.8	>50	1	0.9	43	17	>50	Ratio (Avena sterilis [6]): 22; Ratio (Avena sterilis [11]): 20; Ratio (Avena sterilis [17]): >50; Ratio (Avena sterilis [26]): 7; Ratio (Avena sterilis [20]): >50; Ratio (Avena sterilis [24]): 10
CCO/N=C(\CC)C1=C(O)CC(c2c(C)cc(C)cc2C)CC1=O (stereo not drawn) [TRALKOXYDIM]	0	50	0	60	77	102	19	1	266	55	27	15	32	3	38	1	0.4	27	14	26	
CCc1cc(C)cc(CC)c1-c1c(OC(=O)C(C)(C)C)n2n(c1=O)CCOCC2 [PINOXADEN]	0	0	0	0	20	10		0.9	18					1.4		1	1.6				
CCOC(=O)[C@@H](C)Oc1ccc(Oc2nc3ccc(Cl)cc3o2)cc1 [FENOXAPROP-P-ETHYL]	43	97	30	80	100	>165	136	1.1	59	55	55	16	32	1.2	133	1.1	1.9	38	19	92	Ratio (Avena sterilis [6]): 10; Ratio (Avena sterilis [11]): >165; Ratio (Avena sterilis [17]): 145; Ratio (Avena sterilis [26]): >165; Ratio (Avena sterilis [20]): 83; Ratio (Avena sterilis [24]): 12
